Test results published in patent US9073880B2, “2-(2-phenylethenyl) 1,3-benzodiazepine derivatives useful for the treatment of cancer” (Yissum Research Development Company of the Hebrew …, priority 2010, dated 2015).

Tests used:
[1] = system: human glioblastoma U138MG cells; assay: Cell proliferation, U138MG (Example 4); format: cell-based; settings: U138-MG, compound in 2-hydroxypropyl-β-cyclodextrin
Procedure: (§1) Human ovary cancer A2780 cells lines were seeded at a density of 5000 cells/well, human melanoma A375 cells were plated at a density of 2,500 cells/well, human colon carcinoma HCT15 cells were plated at a density of 3,000 cells/well, human prostate carcinoma PC3 cells were plated at a density of 1,500 cells/well, human breast carcinoma MCF7 cells were plated at a density of 5,000 cells/well, human breast carcinoma MDA MB 468 cells were plated at a density of 6,000 cells/well, human myeloma U266, RPMI8226 and CAG cells were plated at a density of 10,000 cells/well. All cells were plated in 96-well plates in 90 μl growth medium containing 10% FCS, 100 units/ml penicillin and 100 μg/ml streptomycin. Compound 3 was added a day later in […] of 1% DMSO in DDW to obtain final concentrations of 0, 0.1, 0.3, 1, 3, and 10 μM. The final concentration of DMSO (0.1% DMSO) was kept constant in all samples. Following exposure of the cells to compound 3 for 72 hours at 37° C., adhered cells were fixed in 0.5% gluteraldehyde in medium for 10 min, washed three times with DDW, once with 0.1M sodium borate buffer pH 8.5 and stained with 1% methylene blue dissolved in 0.1M borate buffer solution for 60 min. Excess dye was washed out and cell-bound dye was eluted with 200 μl/well of 0.1M HCl. The optical density values were read at 630 nm in ELISA plate reader. Non-adhered cells were exposed to WST-1 reagent for 5 hours following 72 hours treatment with the inhibitors, and optical density values were read at 630 nm in ELISA plate reader. The data was analyzed in Microsoft Excel, using the vehicle control as 100% proliferation. The assays were performed in triplicates. The values of IC50 were derived from the dose-dependent growth curves obtained.
Cell proliferation assay was performed as described in Example 2. […]

[2] = system: human multiple myeloma MM1S cells; assay: Cell proliferation, MM1S (Example 4); format: cell-based; settings: MM1.S, compound in 2-hydroxypropyl-β-cyclodextrin
Procedure: as §1
Cell proliferation assay was performed as described in Example 2. The following cell line were plated in 96-well plates in 90 μl growth medium containing 10% FCS, 100 units/ml penicillin and 100 μg/ml streptomycin: human ovary cancer A2780 cells (4500 cells/well), human melanoma A375 (1500 cells/well) and YUMAC (2500 cells/well) cells, human colon carcinoma HCT15 (3000 cells/well) and HCT116 (2000 cells/well) cells, human prostate carcinoma PC3 (3000 cells/well), PC3MM2 (3500 cells/well) and DU145 (300 cells/well) cells, human hepatocarcinoma HepG2 (3000 cells/well), human Ewing sarcoma SK-ES-1 (4,500 cells/well), human glioblastoma U138MG (2,000 cells/well), human breast cancer T47D (4000 cells/well) and MDA-MB-468 (6000 cells/well) cells, human small cell lung carcinoma NCI-H1975 (5000 cells/well) cells, human osteosarcoma Saos-2 (5000 cells/well) cells, human pancreatic cancer ASPC (2500 cells/well) cells, human bladder carcinoma T24P (1000 cells/well) cells, human gastric cancer NCI-N87 (5000 cells/well) cells, human lymphoma KARPAS (5,000 cells/well) cells, human leukemia K562 (5,000 cells/well) cells and human multiple myeloma MM1S (10,000 cells/well), U266 (10,000 cells/well) and CAG (5,000 cells/well). Compounds 2-5 and 7-8 were added a day later in 10 μl of 0.7% 2-hydroxypropyl-β-cyclodextrin to obtain final concentrations of 0, 0.1, 0.3, 1, 3 and 10 μM.
Compounds 2-5 and 7-8 of the present invention were tested for their inhibitory potential in cell proliferation assay. Human ovary cancer A2780 cells, human melanoma A375 and YUMAC cells, human colon carcinoma HCT15 and HCT116 cells, human prostate carcinoma PC3, PC3MM2 and DU145 cells, human hepatocarcinoma HepG2 cells, human Ewing sarcoma SK-ES-1 cells, human glioblastoma U138MG cells, human breast cancer T47D and MDA-MB-468 cells, human small cell lung carcinoma NCI-H1975 cells, human osteosarcoma Saos-2 cells, human pancreatic cancer ASPC cells, human bladder cancer T24P cells, human gastric cancer cells, human lymphoma KARPAS cells, human leukemia K562 cells, and human multiple myeloma MM1S, CAG and U266 cells, were exposed to increasing concentrations of compounds 2-5 and 7-8. […]

Compound | IC50 [1] [µM] | IC50 [2] [µM]
O=c1c(O)cc2cnc(/C=C/c3ccc(O)c(O)c3Br)sc-2c1O [Compound 5] | 0.3 | 0.6
O=c1c(O)cc2cnc(/C=C/c3cc(O)c(O)c(Br)c3)sc-2c1O [Compound 3] | 0.3 | 0.5
